# Where two headings read alike, the source gives them in different places.
# Key:
# Format in all cases: cell-based
# [1] = Cytotoxicity in HeLa cells, observed microscopically in the antiviral test; conditions: human, hela cells; minimal concentration at which toxic symptoms were observed (cytotoxische Dosis); 2 days at 33°C; read-out: Cytotoxizität
# Method: (§1) Eine Suspension von HeLa-Zellen (6 x 10^4) wurde mit Rhinovirus HGP (3 x 10^3 Plaque-bildende Einheiten, PFU) gemischt und auf eine Mikrotestplatte gebracht, die die zu testenden Verbindungen in zunehmender Verdünnung enthielten. Die Zellen wurden dann in Eagle's Minimalnährlösung, die 2% Kalbsserum, 1% Tryptosephosphatbrühe, 100 ug/ml Streptomycin und 20 Einheiten/ml Penicillin G enthielt, kultiviert. Der virale zytopathogenische Effekt (C.P.E.) und die Cytotoxizität wurden mikroskopisch nach 2 Tagen Kultivierung bei 33°C beobachtet. Die antivirale Aktivität (IC50) der Testverbindungen ist diejenige Konzentration,.bei der C.P.E. um 50% gegenüber der Kontrollkultur gehemmt war. Die Cytotoxizität ist als Minimalkonzentration angegeben, bei der toxische Symptome beobachtet wurden.(cytotoxische Dosis).
# [2] = Cytotoxic dose inhibiting HeLa cell growth; conditions: human, hela cells; footnote of Tabelle 2; read-out: cytotoxischen Dosen, die HeLa-Zellwachstum hemmen
# Rhinovirus 1A = test: Antiviral spectrum against rhinovirus serotypes (C.P.E. inhibition); conditions: Enterovirus; virus strain Rhinovirus 1A
# Method: as §1
# (§2) Weiterhin sind die antiviralen Spektren von 1-(4-Ethoxy-2-hydroxy-6-methoxyphenyl)-3-(4-methoxyphenyl)-1-propanon (Verbindung A) und 4-Ethoxy-2-hydroxy-6-methoxy-N-(p-methoxybenzyl)benzamid (Verbindung B) gegen verschiedene Serotypen von Rhinoviren in Tabelle 2. angegeben.
# Rhinovirus 23 = test: as above; conditions: Enterovirus; virus strain Rhinovirus 23
# Method: as §1, §2
# Rhinovirus 31 = test: as above; conditions: Enterovirus; virus strain Rhinovirus 31
# Method: as §1, §2
# Rhinovirus 2 = test: as above; conditions: Enterovirus; virus strain Rhinovirus 2
# Method: as §1, §2
# Rhinovirus 21 = test: as above; conditions: Enterovirus; virus strain Rhinovirus 21
# Method: as §1, §2
# Rhinovirus 9 = test: as above; conditions: Enterovirus; virus strain Rhinovirus 9
# Method: as §1, §2
# Rhinovirus 24 = test: as above; conditions: Enterovirus; virus strain Rhinovirus 24
# Method: as §1, §2
# Rhinovirus 1B = test: as above; conditions: Enterovirus; virus strain Rhinovirus 1B
# Method: as §1, §2
# Rhinovirus 46 = test: as above; conditions: Enterovirus; virus strain Rhinovirus 46
# Method: as §1, §2
# Rhinovirus 25 = test: as above; conditions: Enterovirus; virus strain Rhinovirus 25
# Method: as §1, §2
# Rhinovirus 14 = test: as above; conditions: Enterovirus; virus strain Rhinovirus 14
# Method: as §1, §2
# Rhinovirus 50 = test: as above; conditions: Enterovirus; virus strain Rhinovirus 50
# Method: as §1, §2
# Rhinovirus 39 = test: as above; conditions: Enterovirus; virus strain Rhinovirus 39
# Method: as §1, §2
# Rhinovirus HGP = test: Antiviral activity: inhibition of viral cytopathogenic effect (C.P.E.) in HeLa cell culture; conditions: for IC50: Enterovirus, HeLa, 48 h; for antivirale Aktivität: qualitative statement in the description, no virus named
# Method: as §1
# Rhinovirus 16 = test: Antiviral spectrum against rhinovirus serotypes (C.P.E. inhibition); conditions: Enterovirus; virus strain Rhinovirus 16
# Method: as §1, §2
# Rhinovirus 30 = test: as above; conditions: Enterovirus; virus strain Rhinovirus 30
# Method: as §1, §2
# Rhinovirus 47 = test: as above; conditions: Enterovirus; virus strain Rhinovirus 47
# Method: as §1, §2
# Rhinovirus 44 = test: as above; conditions: Enterovirus; virus strain Rhinovirus 44
# Method: as §1, §2
# Rhinovirus 36 = test: as above; conditions: Enterovirus; virus strain Rhinovirus 36
# Method: as §1, §2
# Rhinovirus 32 = test: as above; conditions: Enterovirus; virus strain Rhinovirus 32
# Method: as §1, §2
# Rhinovirus 55 = test: as above; conditions: Enterovirus; virus strain Rhinovirus 55
# Method: as §1, §2
# HeLa-Zellen = test: Cytotoxicity in HeLa cells, observed microscopically in the antiviral test; conditions: minimal concentration at which toxic symptoms were observed (cytotoxische Dosis); 2 days at 33°C
# Method: as §1
# [3] = concentration inhibiting C.P.E. by 50% versus control culture, HeLa cells, 2 days at 33°C, read-out: IC50
structure (smiles),measurement,setting,value
CCOc1cc(O)c(C(=O)CCc2ccc(OC)cc2)c(OC)c1 [1-(4-Ethoxy-2-hydroxy-6-methoxyphenyl)-3-(4-methoxyphenyl)-1-propanon],MCC at 48 h,[1],> 8 µg/mL
same,MCC,[2],60 µg/mL
same,IC50,Rhinovirus 1A,0.03 to 0.09 µg/mL
same,IC50,Rhinovirus 23,0.004 µg/mL
same,IC50,Rhinovirus 31,0.03 to 0.09 µg/mL
same,IC50,Rhinovirus 2,0.001 µg/mL
same,IC50,Rhinovirus 21,< 0.001 µg/mL
same,IC50,Rhinovirus 9,0.012 to 0.037 µg/mL
same,IC50,Rhinovirus 24,0.01 to 0.03 µg/mL
same,IC50,Rhinovirus 1B,0.03 to 0.09 µg/mL
same,IC50,Rhinovirus 46,0.037 to 0.11 µg/mL
same,IC50,Rhinovirus 25,0.01 to 0.09 µg/mL
same,IC50,Rhinovirus 14,0.1 to 0.3 µg/mL
same,IC50,Rhinovirus 50,0.004 to 0.012 µg/mL
same,IC50,Rhinovirus 39,0.012 to 0.037 µg/mL
same,IC50,Rhinovirus HGP; [3],0.002 µg/mL
same,antivirale Aktivität,Rhinovirus HGP,besonders starke antivirale Aktivität
CCOc1cc(O)c(C(=O)NCc2ccc(OC)cc2)c(OC)c1 [4-Ethoxy-2-hydroxy-6-methoxy-N-(p-methoxybenzyl)benzamid],MCC at 48 h,[1],> 10 µg/mL
same,MCC,[2],40 µg/mL
same,IC50,Rhinovirus 16,0.003 µg/mL
same,IC50,Rhinovirus 1A,0.009 to 0.027 µg/mL
same,IC50,Rhinovirus 30,0.001 to 0.003 µg/mL
same,IC50,Rhinovirus 31,0.081 to 0.24 µg/mL
same,IC50,Rhinovirus 2,0.001 µg/mL
same,IC50,Rhinovirus 47,0.003 µg/mL
same,IC50,Rhinovirus 21,< 0.001 µg/mL
same,IC50,Rhinovirus 9,0.003 µg/mL
same,IC50,Rhinovirus 44,0.003 µg/mL
same,IC50,Rhinovirus 36,0.009 to 0.027 µg/mL
same,IC50,Rhinovirus 1B,0.003 to 0.009 µg/mL
same,IC50,Rhinovirus 32,0.003 to 0.009 µg/mL
same,IC50,Rhinovirus 14,0.009 to 0.027 µg/mL
same,IC50,Rhinovirus 50,0.01 µg/mL
same,IC50,Rhinovirus 39,0.003 µg/mL
same,IC50,Rhinovirus 55,0.009 µg/mL
same,IC50,Rhinovirus HGP; [3],0.002 µg/mL
same,antivirale Aktivität,Rhinovirus HGP,besonders starke antivirale Aktivität
CCOC(=O)Oc1cc(OCC)cc(OC)c1C(=O)CCc1ccc(OC)cc1 [5-Ethoxy-3-methoxy-2-[3-(4-methoxyphenyl)propionyl]-phenyl-ethylcarbonat],MCC at 48 h,[1],8 µg/mL
same,IC50,Rhinovirus HGP; [3],0.002 µg/mL
same,antivirale Aktivität,Rhinovirus HGP,besonders starke antivirale Aktivität
CCOc1cc(OC)c(C(=O)CCc2ccc(OC)cc2)c(OC(=O)c2ccccc2)c1 [5-Ethoxy-3-methoxy-2-[3-(4-methoxyphenyl)propionyl]phenyl-benzoat],MCC at 48 h,[1],> 8 µg/mL
same,IC50,Rhinovirus HGP; [3],0.01 µg/mL
CCCCCCCCCCCCCCCCCC(=O)Oc1cc(OCC)cc(OC)c1C(=O)CCc1ccc(OC)cc1 [5-Ethoxy-3-methoxy-2-[3-(4-methoxyphenyl)propionyl]phenyl-octadecanoat],MCC at 48 h,[1],> 8 µg/mL
same,IC50,Rhinovirus HGP; [3],0.9 µg/mL
CCOc1cc(OC)c(C(=O)CCc2ccc(OC)cc2)c(O[C@@H]2O[C@H](CO)[C@@H](O)[C@H](O)[C@H]2O)c1 [5-Ethoxy-3-methoxy-2-[3-(4-methoxyphenyl)propionyl]phenyl-ß-D-glucopyranosid],MCC at 48 h,[1],> 10 µg/mL
same,IC50,Rhinovirus HGP; [3],2.7 µg/mL
CCOc1cc(OC)c(C(=O)CCc2ccc(OC)cc2)c(OP(=O)(O)O)c1 [5-Ethoxy-3-methoxy-2-[3-(4-methoxyphenyl)propionyl]phenyldihydrogenphosphat],MCC at 48 h,[1],> 10 µg/mL
same,IC50,Rhinovirus HGP,0.3 to 0.8 µg/mL
CCOc1cc(OC)c(C(=O)NCc2ccc(OC)cc2)c(OP(=O)([O-])[O-])c1.[Na+].[Na+] [Dinatrium 2-[(p-Anisylamino)carbonyl]-5-ethoxy-3-methoxyphenyl-phosphat],Cytotoxizität,HeLa-Zellen,>8 µg/mL
same,IC50,Rhinovirus HGP,0.01 to 0.03 µg/mL
same,antivirale Aktivität,Rhinovirus HGP,besonders starke antivirale Aktivität
CCCOc1cc(OC)c(C(=O)NCc2ccc(OC)cc2)c(OP(=O)([O-])[O-])c1.[Na+].[Na+] [Dinatrium 2-[(p-anisylamino)carbonyl]-3-methoxy-5-propoxyphenylphosphat],MCC at 48 h,[1],> 200 µg/mL
same,IC50,Rhinovirus HGP,0.01 to 0.02 µg/mL
same,antivirale Aktivität,Rhinovirus HGP,besonders starke antivirale Aktivität
CCOc1cc(OC)c(C(=O)CCc2ccc(OC)cc2)c(OP(=O)([O-])[O-])c1.[Na+].[Na+] [Dinatrium 5-ethoxy-3-methoxy-2-[3-(4-methoxyphenyl)-propionyl]phenylphosphat],Cytotoxizität,HeLa-Zellen,>10 µg/mL
same,IC50,Rhinovirus HGP,0.03 to 0.1 µg/mL
"CCCCOc1ccc(CNC(=O)c2c(O)cc(OC)cc2OC)cc1 [N-(p-Butoxybenzyl)-2-hydroxy--4,6-dimethoxybenzamid]",MCC at 48 h,[1],8 µg/mL
same,IC50,Rhinovirus HGP; [3],0.3 µg/mL
"COc1cc(O)c(C(=O)NCc2ccc(Cl)cc2)c(OC)c1 [N-(p-Chlorobenzyl)-2-hydroxy--4,6-dimethoxybenzamid]",MCC at 48 h,[1],> 2.4 µg/mL
same,IC50,Rhinovirus HGP; [3],0.01 to 0.03 µg/mL
"COc1cc(O)c(C(=O)NCc2ccccc2)c(OC)c1 [N-Benzyl-2-hydroxy-4,6-dimethoxy-benzamid]",MCC at 48 h,[1],> 8 µg/mL
same,IC50,Rhinovirus HGP; [3],0.03 to 0.1 µg/mL
"COc1cc(O)c(C(=O)NCc2ccco2)c(OC)c1 [N-Furfuryl-2-hydroxy-4,6--dimethoxybenzamid]",MCC at 48 h,[1],> 8 µg/mL
same,IC50,Rhinovirus HGP; [3],0.03 to 0.1 µg/mL
"C=CCOc1ccc(CNC(=O)c2c(O)cc(OC)cc2OC)cc1 [N-[p-(Allyloxy)benzyl]-2-hydroxy-4,6-dimethoxybenzamid]",MCC at 48 h,[1],8 µg/mL
same,IC50,Rhinovirus HGP; [3],0.01 µg/mL
"COc1cc(O)c(C(=O)NCc2ccc(OCc3ccccc3)cc2)c(OC)c1 [N-[p-(Benzyloxy)benzyl]-2--hydroxy-4,6-dimethoxybenzamid]",MCC at 48 h,[1],> 8 µg/mL
same,IC50,Rhinovirus HGP; [3],0.3 to 0.9 µg/mL
"COc1cc(O)c(C(=O)NCc2ccc(N(C)C)cc2)c(OC)c1 [N-[p-(Dimethylamino)benzyl]-2--hydroxy-4,6-dimethoxybenzamid]",MCC at 48 h,[1],> 8 µg/mL
same,IC50,Rhinovirus HGP; [3],0.01 µg/mL

# Source: patent EP0051819A2, “Tetra-substituted benzene derivatives, their preparation and pharmaceutical preparations containing them” (F. HOFFMANN-LA ROCHE & CO. Aktiengesellschaft, priority 1980, dated 1982)
